Data reported in patent publication US20030134859A1 (SANKYO COMPANY, LIMITED, priority 2000, published 2003).

Target: T1, human PPAR γ 2 (Homo sapiens, UniProt P37231)
T1 construct: expressed in transfected cells; host or cells: human osteosarcoma MG63, transiently co-transfected with pSG5-hPPARg and the reporter pGV-P2-PPRE
T1 sequence (P37231 1-505): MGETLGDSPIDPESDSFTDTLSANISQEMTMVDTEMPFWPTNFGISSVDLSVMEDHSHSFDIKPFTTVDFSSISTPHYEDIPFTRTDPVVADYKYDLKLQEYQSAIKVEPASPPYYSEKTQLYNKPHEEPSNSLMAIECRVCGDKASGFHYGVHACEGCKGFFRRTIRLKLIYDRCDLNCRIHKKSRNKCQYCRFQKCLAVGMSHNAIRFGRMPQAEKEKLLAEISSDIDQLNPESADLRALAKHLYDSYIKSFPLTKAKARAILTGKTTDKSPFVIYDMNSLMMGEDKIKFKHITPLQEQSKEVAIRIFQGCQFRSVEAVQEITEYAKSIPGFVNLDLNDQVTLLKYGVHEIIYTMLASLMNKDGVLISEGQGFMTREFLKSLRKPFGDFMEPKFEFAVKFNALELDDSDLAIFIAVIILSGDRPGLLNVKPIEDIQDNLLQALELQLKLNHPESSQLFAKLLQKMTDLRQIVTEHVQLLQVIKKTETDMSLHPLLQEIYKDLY
Assay: Inhibitory activity against PPAR γ transcription in the presence of agonist compound A, luciferase reporter
Assay type: cell-based
Conditions: in the presence of 10 nM compound A (agonist); MG63 cells transfected with pSG5-hPPARg and pGV-P2-PPRE; 24 hr

Compound | IC50 [nM]
O=C(Nc1ccc(Cl)nn1)c1cc([N+](=O)[O-])ccc1Cl [Example 89] | 400
Cc1nnc(NS(=O)(=O)c2ccc(NC(=O)c3cc([N+](=O)[O-])ccc3Cl)cc2)s1 [Example 101, N-[4-[(5-Methyl-[1,3,4]thiadiazol-2-yl)aminosulfonyl]phenyl]-(2-chloro-5-nitrophenyl)carboxamide] | 61
Cc1noc(NS(=O)(=O)c2ccc(NC(=O)c3cc([N+](=O)[O-])ccc3Cl)cc2)c1C [Example 104, N-[4-[(3,4-Dimethylisoxazol-6-yl)aminosulfonyl]phenyl]-(2-chloro-5-nitrophenyl)carboxamide] | 270
CC(=O)Nc1ccc(-c2ccc(NC(=O)c3cc([N+](=O)[O-])ccc3Cl)cc2)cc1 [Example 118, N-[4-(4-Acetylaminophenyl)phenyl]-(2-chloro-5-nitrophenyl)carboxamide] | 8.6
O=C(Nc1ccc(-c2ccc(NC(=O)c3cc([N+](=O)[O-])ccc3Cl)cc2)cc1)c1ccccc1 [Example 120, N-[4-(4-Benzoylaminophenyl)phenyl]-(2-chloro-5-nitrophenyl)carboxamide] | 13
O=C(Nc1ccc(-c2ccc(NC(=O)c3cc([N+](=O)[O-])ccc3Cl)cc2)cc1)c1cccnc1 [Example 124, N-[4-[4-(Pyridin-3-ylcarbonylamino)phenyl]phenyl]-(2-chloro-5-nitrophenyl)carboxamide] | 8.1
O=C(Nc1ccc(-c2ccc(NC(=O)c3cc([N+](=O)[O-])ccc3Cl)cc2)cc1)c1ccncc1 [Example 126, N-[4-[4-(Pyridin-4-ylcarbonylamino)phenyl]phenyl]-(2-chloro-5-nitrophenyl)carboxamide] | 14
O=C(Nc1ccc(NS(=O)(=O)c2ccccc2)cc1)c1cc([N+](=O)[O-])ccc1Cl [Example 127, N-(4-Benzenesulfonylaminophenyl)-(2-chloro-5-nitrophenyl)carboxamide] | 11
CCS(=O)(=O)Nc1ccc(-c2ccc(NC(=O)c3cc([N+](=O)[O-])ccc3Cl)cc2)cc1 [Example 130, N-[4-(4-Ethanesulfonylaminophenyl)phenyl]-(2-chloro-5-nitrophenyl)carboxamide] | 11
O=C(Nc1cnccn1)c1cc([N+](=O)[O-])ccc1Cl [Example 140, N-(Pyrazin-2-yl)-(2-chloro-5-nitrophenyl)carboxamide] | 110
O=C(Nc1ccc(S(=O)(=O)N2CCCCC2)cc1)c1cc([N+](=O)[O-])ccc1Cl [Example 151, N-[4-(Piperidyisulfonyl)phenyl]-(2-chloro-5-nitrophenyl)carboxamide] | 12
CC(C)(C)OC(=O)Nc1ccc(-c2csc(NC(=O)c3cc([N+](=O)[O-])ccc3Cl)n2)cc1 [Example 190, N-[4-(4-tert-Butoxycarbonylaminophenyl)thiazol-2-yl]-(2-chloro-5-nitrophenyl)carboxamide] | 36
N-[3-(Pyrrolidinylsulfonyl)phenyl]-(2-chloro-5-nitrophenyl)carboxamide [Example 154] | 81
N-[4-(4-Methylbenzoylamino)phenyl]phenyl]-(2-chloro-5-nitrophenyl)carboxamide [Example 122] | 7.6
N-[4-(Benzenesulfonylaminophenyl)phenyl]-(2-chloro-5-nitrophenyl)carboxamide [Example 128] | 35
N-[4-[4-(Pyrrolidin-1-ylamino)phenyl]phenyl]-(2-chloro-5-nitrophenyl)carboxamide [Example 171] | 48

The remaining lines, values ahead:

IC50 [nM] | Compound
49 | O=C(Nc1ccc(S(=O)(=O)N2CCOCC2)cc1)c1cc([N+](=O)[O-])ccc1Cl [Example 153, N-[4-(Morpholin-4-ylsulfonyl)phenyl]-(2-chloro-5-nitrophenyl)carboxamide]
9.8 | CC(=O)c1ccc(NC(=O)c2cc([N+](=O)[O-])ccc2Cl)cc1 [Example 155, N-(4-Acetylphenyl)-(2-chloro-5-nitrophenyl)carboxamide]
100 | CC(=O)c1cccc(NC(=O)c2cc([N+](=O)[O-])ccc2Cl)c1 [Example 156, N-(3-Acetylphenyl)-(2-chloro-5-nitrophenyl)carboxamide]
11 | O=C(Nc1ccc(C(=O)N2CCCCC2)cc1)c1cc([N+](=O)[O-])ccc1Cl [Example 159, N-[4-(Piperidylcarbonyl)phenyl]-(2-chloro-5-nitrophenyl)carboxamide]
9.4 | O=C(Nc1ccc(-n2ccnc2)cc1)c1cc([N+](=O)[O-])ccc1Cl [Example 174, N-[4-(Imidazol-1-yl)phenyl]-(2-chloro-5-nitrophenyl)carboxamide]
99 | CC(C)(C)c1cc(NS(=O)(=O)c2ccc(NC(=O)c3cc([N+](=O)[O-])ccc3Cl)cc2)cc(C(C)(C)C)c1O [Example 175, N-[4-[(3,5-di-tert-Butyl-4-hydroxyphenyl)aminosulfonyl]phenyl]-(2-chloro-5-nitrophenyl)carboxamide]
94 | O=C(Nc1ccc(-c2ccc(N3CCCCC3)cc2)cc1)c1cc([N+](=O)[O-])ccc1Cl [Example 177, N-[4-[4-(Piperidin-1-yl)phenyl]phenyl]-(2-chloro-5-nitrophenyl)carboxamide]
33 | CCCCCCN(CC)c1ccc(NC(=O)c2cc([N+](=O)[O-])ccc2Cl)cc1 [Example 188, N-[4-(N-Ethyl-N-hexylamino)phenyl]-(2-chloro-55 nitrophenyl)carboxamide]
330 | CCCN(CCC)c1ccc(-c2ccc(NC(=O)c3cc([N+](=O)[O-])ccc3Cl)cc2)cc1 [Example 194, N-[4-[4-(N,N-Dipropylamino)phenyl]phenyl]-(2-chloro-5-nitrophenyl)carboxamide]
